# Tested on: HT-29 cells
# Assay: HT-29 cell necrosis/necroptosis inhibition (TNF-α + SMAC mimetic + zVAD-FMK; CellTiter-Glo cell viability)
# Type: cell-based
# Settings: Homo sapiens, HT-29, 20 h, read-out: EC50 (Cell activity; Necrosis/Necroptosis Inhibitory Activity, Compounds 1-142)
# Summary of the method: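 HT-29 cells (~5,000/well) were switched to FBS-free McCOY's 5A holding TNF-α (10 ng/ml), SMAC mimetic (6 μM) and zVAD-FMK (10 μM), then dosed with a 10-point 1:3 series for 20 h at 37 °C. CellTiter-Glo luminescence gave viability; geometric mean EC50 from duplicates.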
row,Structure (SMILES),EC50 [nM]
1,"Cn1cnn(-c2nc(N3CCN(C(=O)N4N=CC[C@H]4c4cc(F)cc(C#N)c4)CC3)ncc2F)c1=O [Compound 140, (S)-3-fluoro-5-(1-(4-(5-fluoro-4-(4-methyl-5-oxo-4,5-dihydro-1H-1,2,4-triazol-1-yl)pyrimidin-2-yl)piperazine-1-carbonyl)-4,5-dihydro-1H-pyrazol-5-yl)benzonitrile]",0.1 to 100

# Same assay, conditions: Homo sapiens; HT-29 cells, TNF-α 10 ng/ml + SMAC mimetic 6 μM + zVAD-FMK 10 μM, 20 hours; geometric mean, 10 points in duplicate; read-out: EC50 (Cell activity; Necrosis/Necroptosis Inhibitory Activity, Compounds 1-142)
row,Structure (SMILES),EC50 [nM]
1,"O=C(N1CCN(c2nccc(C3=NCCN3)n2)CC1)N1N=CC[C@H]1c1cc(F)cc(F)c1 [Compound 3, (S)-(5-(3,5-difluorophenyl)-4,5-dihydro-1H-pyrazol-1-yl)(4-(4-(4,5-dihydro-1H-imidazol-2-yl)pyrimidin-2-yl)piperazin-1-yl)methanone]",0.1 to 100
2,"Cc1cc(-c2nc(N3CCN(C(=O)N4N=CC[C@H]4c4cc(F)cc(C#N)c4)CC3)ncc2F)n(C)n1 [Compound 84, (S)-3-(1-(4-(4-(1,3-dimethyl-1H-pyrazol-5-yl)-5-fluoropyrimidin-2-yl)piperazine-1-carbonyl)-4,5-dihydro-1H-pyrazol-5-yl)-5-fluorobenzonitrile]",0.1 to 100
3,Cn1cc(-c2nc(N3CCN(C(=O)N4N=CC[C@H]4c4cc(F)cc(C#N)c4)CC3)ncc2F)nn1 [Compound 40],0.1 to 100
4,"Cc1cc(-c2nc(N3CCN(C(=O)N4N=CC[C@H]4c4cc(F)cc(F)c4)CC3)ncc2F)n(C)n1 [Compound 83, (S)-(5-(3,5-difluorophenyl)-4,5-dihydro-1H-pyrazol-1-yl)(4-(4-(1,3-dimethyl-1H-pyrazol-5-yl)-5-fluoropyrimidin-2-yl)piperazin-1-yl)methanone]",0.1 to 100
5,"Cc1cc(-c2nc(N3CCN(C(=O)N4N=CC[C@H]4c4ccccc4)CC3)ncc2F)n(C)n1 [Compound 85, (S)-(4-(4-(1,3-dimethyl-1H-pyrazol-5-yl)-5-fluoropyrimidin-2-yl)piperazin-1-yl)(5-phenyl-4,5-dihydro-1H-pyrazol-1-yl)methanone]",0.1 to 100
6,"O=C(N1CCN(c2ncc(F)c(-c3ccc[nH]c3=O)n2)CC1)N1N=CC[C@H]1c1cc(F)cc(F)c1 [Compound 87, (S)-3-(2-(4-(5-(3,5-difluorophenyl)-4,5-dihydro-1H-pyrazole-1-carbonyl)piperazin-1-yl)-5-fluoropyrimidin-4-yl)pyridin-2(1H)-one]",0.1 to 100
7,"CCn1c(C)nn(-c2nc(N3CCN(C(=O)N4N=CC[C@H]4c4cc(F)cc(C#N)c4)CC3)ncc2F)c1=O [Compound 97, (S)-3-(1-(4-(4-(4-ethyl-3-methyl-5-oxo-4,5-dihydro-1H-1,2,4-triazol-1-yl)-5-fluoropyrimidin-2-yl)piperazine-1-carbonyl)-4,5-dihydro-1H-pyrazol-5-yl)-5-fluorobenzonitrile]",0.1 to 100
8,NC(=O)Cn1ccc(-c2nc(N3CCN(C(=O)N4N=CC[C@H]4c4ccccc4)CC3)ncc2F)n1 [Compound 77],0.1 to 100
9,"Cc1c(-c2nc(N3CCN(C(=O)N4N=CC[C@H]4c4cc(F)cc(F)c4)CC3)ncc2F)nnn1CC(N)=O [Compound 31, (S)-2-(4-(2-(4-(5-(3,5-difluorophenyl)-4,5-dihydro-1H-pyrazole-1-carbonyl)piperazin-1-yl)-5-fluoropyrimidin-4-yl)-5-methyl-1H-1,2,3-triazol-1-yl)acetamide]",0.1 to 100
10,"Cc1cc(-c2cc(N3CCN(C(=O)N4N=CC[C@H]4c4cc(F)cc(F)c4)CC3)ncc2F)n(C)n1 [Compound 116, (S)-(5-(3,5-difluorophenyl)-4,5-dihydro-1H-pyrazol-1-yl)(4-(4-(1,3-dimethyl-1H-pyrazol-5-yl)-5-fluoropyridin-2-yl)piperazin-1-yl)methanone]",0.1 to 100
11,"NC(=O)c1cnn(-c2ccnc(N3CCN(C(=O)N4N=CC[C@H]4c4ccccc4)CC3)n2)c1 [Compound 11, (S)-1-(2-(4-(5-phenyl-4,5-dihydro-1H-pyrazole-1-carbonyl)piperazin-1-yl)pyrimidin-4-yl)-1H-pyrazole-4-carboxamide]",0.1 to 100
12,"N#Cc1cc(F)cc([C@@H]2CC=NN2C(=O)N2CCN(c3ncc(F)c(-n4cc(C#N)cn4)n3)CC2)c1 [Compound 127, (S)-1-(2-(4-(5-(3-cyano-5-fluorophenyl)-4,5-dihydro-1H-pyrazole-1-carbonyl)piperazin-1-yl)-5-fluoropyrimidin-4-yl)-1H-pyrazole-4-carbonitrile]",0.1 to 100
13,"Cc1nn(CC2CCOCC2)c(C)c1-c1nc(N2CCN(C(=O)N3N=CC[C@H]3c3cc(F)cc(F)c3)CC2)ncc1F [Compound 122, (S)-(5-(3,5-difluorophenyl)-4,5-dihydro-1H-pyrazol-1-yl)(4-(4-(3,5-dimethyl-1-((tetrahydro-2H-pyran-4-yl)methyl)-1H-pyrazol-4-yl)-5-fluoropyrimidin-2-yl)piperazin-1-yl)methanone]",0.1 to 100
14,"O=C(N1CCN(c2nccc(-c3ccc[nH]3)n2)CC1)N1N=CC[C@H]1c1cc(F)cc(F)c1 [Compound 6, (S)-(4-(4-(1H-pyrrol-2-yl)pyrimidin-2-yl)piperazin-1-yl)(5-(3,5-difluorophenyl)-4,5-dihydro-1H-pyrazol-1-yl)methanone]",0.1 to 100
15,"Cc1nn(CCO)c(C)c1-c1nc(N2CCN(C(=O)N3N=CC[C@H]3c3cc(F)cc(C#N)c3)CC2)ncc1F [Compound 124, (S)-3-fluoro-5-(1-(4-(5-fluoro-4-(1-(2-hydroxyethyl)-3,5-dimethyl-1H-pyrazol-4-yl)pyrimidin-2-yl)piperazine-1-carbonyl)-4,5-dihydro-1H-pyrazol-5-yl)benzonitrile]",0.1 to 100

# Same assay, conditions: Homo sapiens; HT-29 cells, TNF-α 10 ng/ml + SMAC mimetic 6 μM + zVAD-FMK 10 μM, 20 hours; geometric mean, 10 points in duplicate; read-out: EC50 (Cell activity; Necrosis/Necroptosis Inhibitory Activity, Compounds 143-323)
row,Structure (SMILES),EC50 [nM]
1,"Cc1nc(C)n(-c2cc(N3CCN(C(=O)N4N=CC[C@H]4c4cc(F)cc(C#N)c4)CC3)c(F)cn2)n1 [Compound 272, (S)-3-(1-(4-(2-(3,5-dimethyl-1H-1,2,4-triazol-1-yl)-5-fluoropyridin-4-yl)piperazine-1-carbonyl)-4,5-dihydro-1H-pyrazol-5-yl)-5-fluorobenzonitrile]",0.1 to 100
2,"Cc1csc(C2CC=NN2C(=O)N2CCN(c3nc(-c4c(C)cnn4C)ncc3F)CC2)n1 (stereo not drawn) [Compound 161, (4-(2-(1,4-dimethyl-1H-pyrazol-5-yl)-5-fluoropyrimidin-4-yl)piperazinyl)(5-(4-methylthiazol-2-yl)-4,5-dihydro-1H-pyrazol-1-yl)methanone]",0.1 to 100
3,"Cc1nc(C)n(-c2nc(N3CCN(C(=O)N4N=CCC4c4coc(C)n4)CC3)ncc2F)n1 (stereo not drawn) [Compound 211, (4-(4-(3,5-dimethyl-1H-1,2,4-triazol-1-yl)-5-fluoropyrimidin-2-yl)piperazin-1-yl)(5-(2-methyloxazol-4-yl)-4,5-dihydro-1H-pyrazol-1-yl)methanone]",0.1 to 100
4,"Cn1ncnc1-c1ccc(F)c(N2CCN(C(=O)N3N=CC[C@H]3c3cc(F)cc(F)c3)CC2)n1 [Compound 175, (S)-(5-(3,5-difluorophenyl)-4,5-dihydro-1H-pyrazol-1-yl)(4-(3-fluoro-6-(1-methyl-1H-1,2,4-triazol-5-yl)pyridin-2-yl)piperazin-1-yl)methanone]",0.1 to 100
5,"Cn1nc(C(=O)O)nc1-c1nc(N2CCN(C(=O)N3N=CCC3c3cc(F)cc(F)c3)CC2)ncc1F (stereo not drawn) [Compound 230, 5-(2-(4-(5-(3,5-difluorophenyl)-4,5-dihydro-1H-pyrazole-1-carbonyl)piperazin-1-yl)-5-fluoropyrimidin-4-yl)-1-methyl-1H-1,2,4-triazole-3-carboxylic acid]",100 to 1000
6,"Cc1nc(C)n(-c2nc(N3CCN(C(=O)N4N=CC[C@H]4c4cc(F)cc(F)c4)CC3)c(F)cc2F)n1 [Compound 232, (S)-(5-(3,5-difluorophenyl)-4,5-dihydro-1H-pyrazol-1-yl)(4-(6-(3,5-dimethyl-1H-1,2,4-triazol-1-yl)-3,5-difluoropyridin-2-yl)piperazin-1-yl)methanone]",0.1 to 100
7,"Cc1nn(-c2nc(N3CCN(C(=O)N4N=CC[C@H]4c4cc(F)cc(C#N)c4)CC3)ncc2F)c(C)c1NC(=O)C1CC1 [Compound 192, (S)—N-(1-(2-(4-(5-(3-cyano-5-fluorophenyl)-4,5-dihydro-1H-pyrazole-1-carbonyl)piperazin-1-yl)-5-fluoropyrimidin-4-yl)-3,5-dimethyl-1H-pyrazol-4-yl)cyclopropanecarboxamide]",0.1 to 100
8,"Cc1nc(C)n(-c2nc(N3CCN(C(=O)N4N=CCC4c4csc(C)n4)CC3)ncc2Cl)n1 (stereo not drawn) [Compound 224, (4-(5-chloro-4-(3,5-dimethyl-1H-1,2,4-triazol-1-yl)pyrimidin-2-yl)piperazin-1-yl)(5-(2-methylthiazol-4-yl)-4,5-dihydro-1H-pyrazol-1-yl)methanone]",100 to 1000
9,"Cc1nnc(-c2nc(N3CCN(C(=O)N4N=CC[C@H]4c4cc(F)cc(C#N)c4)CC3)ccc2F)s1 [Compound 172, (S)-3-fluoro-5-(1-(4-(5-fluoro-6-(5-methyl-1,3,4-thiadiazol-2-yl)pyridin-2-yl)piperazine-1-carbonyl)-4,5-dihydro-1H-pyrazol-5-yl)benzonitrile]",0.1 to 100
10,"Cc1nn(-c2nc(N3CCN(C(=O)N4N=CC[C@H]4c4cc(F)cc(C#N)c4)CC3)ncc2F)c(C)c1S(C)(=O)=O [Compound 204, (S)-3-(1-(4-(4-(3,5-dimethyl-4-(methylsulfonyl)-1H-pyrazol-1-yl)-5-fluoropyrimidinyl)piperazine-1-carbonyl)-4,5-dihydro-1H-pyrazol-5-yl)-5-fluorobenzonitrile]",0.1 to 100
11,"Cc1c(-c2nc(N3CCN(C(=O)N4N=CC[C@H]4c4cc(F)cc(C#N)c4)CC3)ncc2F)c(CO)nn1C [Compound 165, (S)-3-fluoro-5-(1-(4-(5-fluoro-4-(3-(hydroxymethyl)-1,5-dimethyl-1H-pyrazol-4-yl)pyrimidin-2-yl)piperazine-1-carbonyl)-4,5-dihydro-1H-pyrazol-5-yl)benzonitrile]",0.1 to 100
